{"source": "paper PMC6356231", "about": "“Capillasterin A, a Novel Pyrano[2,3-f]chromene from the Australian Crinoid Capillaster multiradiatus” (Marine Drugs, 2019)", "key": {"[1]": {"test_system": "CEM cells", "experiment": "apoptosis (annexin V-APC) cellular toxicity assay in CEM cells", "type": "cell-based", "conditions": "72 hours", "experimental": "Compounds 1–7 were further assessed for cellular toxicity in CEM cells, the parental cell line of CEM-GXR. After 72 hours’ treatment with compounds, toxicity was assessed by measuring the surface expression of the early apoptotic marker annexin V by flow cytometry (by staining with annexin V-APC). […] In contrast, no increase in apoptosis was observed up to 100 µM for compounds 1–7, with the exception of compound 2, which induced 1.4 ± 0.2 and 2.2 ± 0.4-fold increases at 30 and 100 µM, respectively.\n(§1) The following reagents were obtained from the NIH AIDS Reagent Program: CEM CD4^+ cells (CEM) from Dr. J.P. Jacobs, [23] and pNL4-3 from M. Martin [24]. Efavirenz and panobinostat were purchased from Sigma-Aldrich (St. Louis, MO, USA). CEM and CEM-derived GXR25 GFP-reporter T cells (CEM-GXR; [18]) were cultured in R10+ medium [RPMI-1640 with HEPES and L-Glutamine (Lonza, Basel, Switzerland), 10% fetal calf serum, 100 U of penicillin/mL, and 100 µg of streptomycin/mL Sigma-Aldrich (St. Louis, MO, USA)]. Production of HIV-1 NL4.3 and multi-cycle HIV-1 replication assays were performed as described previously. Apoptosis assays were performed by staining CEM cells with annexin V-APC (BioLegend, San Diego, CA) according to manufacturer instructions."}, "[2]": {"test_system": "HIV-1 strain NL4.3", "experiment": "multi-cycle HIV-1 replication assay in CEM-GXR GFP-reporter T cells", "type": "cell-based", "conditions": "for EC50: read-out: EC50, in vitro HIV-1 replication; for inhibition of HIV-1 replication (in words): CEM-GXR T cell line", "experimental": "The ability of compounds 1–7 to inhibit HIV-1 replication was evaluated in vitro using an established multi-cycle replication assay. Briefly, the CEM-GXR T cell line, which contains an HIV-1 promoter-driven green fluorescent protein (GFP) reporter, was infected with the full-length, infectious HIV-1 strain NL4.3 at a multiplicity of infection of 0.03 [18]. After 24 hours, cells were washed and subsequently incubated with compounds 1–7, the control HIV inhibitor efavirenz, or 0.1% DMSO vehicle control. GFP expression, a marker of viral replication, was then measured by flow cytometry after 72 hours.\nas §1"}, "[3]": {"test_system": "GFP-expressing immortalised mouse olfactory ensheathing cells (mOEC)", "experiment": "mOEC cell proliferation (resazurin viability) assay", "type": "cell-based", "conditions": "10 µM, 24 hours of treatment", "experimental": "Compounds 1–7 have now been added to the Davis Open-Access Compound Library housed at Compounds Australia, Griffith University, where they are available for collaboration in drug discovery or chemical biology research.\nThe cell proliferation assay was performed according to the method described by Chen et al., with modification. Briefly, GFP-expressing immortalised mouse OECs (mOEC) were seeded at 2000 cells/well in a 384-well microplate (Greiner Bio-One, Kremsmünster, Austria) with a Multidrop™ Combi Reagent Dispenser (Thermo Fisher Scientific, Waltham, MA, USA) using the BioCel Automation System (Agilent Technologies, Santa Clara, CA, USA) and incubated overnight at 37 °C under 5% CO2. After 24 hours, the cells were treated with 4 different concentrations of pure compounds (10, 1, 0.1 and 0.01 µM). 0.2% DMSO was used as negative control. Plates were incubated for 24 hours at 37 °C under 5% CO2. Cell viability of mOECs was measured by adding 5 µL of resazurin (500 μM, Sigma-Aldrich, Sydney, Australia) to the cells and incubated in dark for 4 hours at 37 °C under 5% CO2. The dehydrogenase enzymes found in metabolically active cells will convert resazurin to resofurin products that are soluble in culture medium. The fluorescent resofurin products produced by the viable cells are quantified using an EnVision™ Multilabel (PerkinElmer, Waltham, MA, USA) plate reader at 535/595nm. After that, the cells were fixed and stained with Hoechst (Thermo Fisher Scientific, Waltham, MA, USA) and stored at 4 °C prior to imaging. Cells were imaged automatically using Operetta™ (PerkinElmer, Waltham, MA, USA). Individual cell segmentation and cell count were performed using the Harmony 3.5.2® software."}, "[4]": {"experiment": "compound stability (observation)", "type": "physicochemical"}, "[5]": {"test_system": "multidrug transporter ABCG2", "parameters": "method as in PMID 20627559", "conditions": "cited from earlier work"}, "[6]": {"conditions": "Human immunodeficiency virus 1, CEM-GXR T cells, HIV-1 NL4.3, MOI 0.03, GFP by flow cytometry after 72 hours, mean ± s.d. of three independent experiments"}}, "note": "Where two headings read alike, the source gives them in different places.", "data": [{"smiles": "Cc1[nH]c2ccccc2c1CCNCc1ccc(/C=C/C(=O)NO)cc1", "note": "[panobinostat, reference compound]", "values": [{"measurement": "fold increase in apoptotic cells relative to 0.1% DMSO", "setting": "[1]; 3 µM", "value": "4.2 ± 1.8", "unit": "fold"}]}, {"smiles": "CCCc1cc(=O)c2c(OC)c(OC)c3cc(O)cc(OC)c3c2o1", "note": "[Compound 4, 6-methoxycomaparvin-5-methyl ether]", "values": [{"measurement": "EC50", "setting": "[2]; [6]", "value": "14.5 ± 5.8", "unit": "µM"}, {"measurement": "increase in mOEC viability (in words)", "setting": "[3]", "value": "none of the compounds showed a significant increase"}]}, {"smiles": "COc1cc(O)cc2cc3oc(C)cc(=O)c3c(O)c12", "note": "[Compound 7, TMC-256A1]", "values": [{"measurement": "inhibition of HIV-1 replication (in words)", "setting": "[2]", "value": "no detectable activity"}, {"measurement": "EC50", "setting": "[2]; [6]", "value": "> 100", "unit": "µM"}, {"measurement": "increase in mOEC viability (in words)", "setting": "[3]", "value": "none of the compounds showed a significant increase"}]}, {"smiles": "O=C1Nc2ccc(Cl)cc2[C@@](C#CC2CC2)(C(F)(F)F)O1", "note": "[Efavirenz, reference compound]", "values": [{"measurement": "EC50", "setting": "[2]; Human immunodeficiency virus 1, CEM-GXR, 72 h", "value": "0.0025 ± 0.0019", "unit": "µM"}]}, {"smiles": "CCCc1cc(=O)c2c(O)c(OC)c3cc(O)cc(OC)c3c2o1", "note": "[Compound 8, 6-methoxycomaparvin]", "values": [{"measurement": "stability (in words)", "setting": "[4]", "value": "unstable"}]}, {"smiles": "COc1cc(O)cc2cc3oc(C)cc(=O)c3c(O)c12", "note": "[TMC-256A1]", "values": [{"measurement": "inhibition of ABCG2 (in words)", "setting": "[5]", "value": "inhibit"}]}, {"smiles": "CCCc1cc(=O)c2c(O)cc3cc(O)cc(OC)c3c2o1", "note": "[Compound 2, comaparvin]", "values": [{"measurement": "fold increase in apoptotic cells relative to 0.1% DMSO", "setting": "[1]; 30 µM", "value": "1.4 ± 0.2", "unit": "fold"}, {"measurement": "fold increase in apoptotic cells relative to 0.1% DMSO", "setting": "[1]; 100 µM", "value": "2.2 ± 0.4", "unit": "fold"}, {"measurement": "fold increase in activity as compared to 5", "setting": "[2]; HIV-1 replication EC50, angular vs linear naphthopyrone", "value": "approximately 2.0 fold"}, {"measurement": "EC50", "setting": "[2]; [6]", "value": "7.5 ± 1.7", "unit": "µM"}]}, {"smiles": "COc1cc(O)cc2cc(O)c3c(=O)cc(C)oc3c12", "note": "[Compound 3, TMC-256C1]", "values": [{"measurement": "inhibition of HIV-1 replication (in words)", "setting": "[2]", "value": "weaker but consistent antiviral activity"}, {"measurement": "fold reduction in activity compared to 2", "setting": "[2]; HIV-1 replication EC50, methyl instead of propyl at C-2", "value": 3.4, "unit": "fold"}, {"measurement": "EC50", "setting": "[2]; [6]", "value": "25.5 ± 3.4", "unit": "µM"}]}, {"smiles": "CCCc1cc(=O)c2c(O)c3c(OC)cc(O)cc3cc2o1", "note": "[Compound 5, 5,8-dihydroxy-6-methoxy-2-propyl-4H-naphtho[2,3-b]pyran-4-one]", "values": [{"measurement": "EC50", "setting": "[2]; [6]", "value": "15.6 ± 6.5", "unit": "µM"}]}, {"smiles": "CCCc1cc(=O)c2c(O)c3c(OC)cc(O)cc3c(OC)c2o1", "values": [{"measurement": "inhibition of ABCG2 (in words)", "setting": "[5]", "value": "inhibit"}]}, {"smiles": "CCCc1cc(=O)c2c(O)c3c(OC)cc(O)cc3c(OC)c2o1", "note": "[Compound 6, 5,8-dihydroxy-6,10-dimethoxy-2-propyl-4H-naphtho[2,3-b]pyran-4-one]", "values": [{"measurement": "EC50", "setting": "[2]; [6]", "value": "20.2 ± 4.9", "unit": "µM"}]}, {"smiles": "CCCc1cc(=O)c2c(cc(C(C)=O)c3c(OC)cc(=O)oc32)o1", "note": "[Compound 1, 5-acetyl-4-methoxy-8-propylpyrano[2,3-f]chromene-2,10-dione]", "values": [{"measurement": "EC50", "setting": "[2]; [6]", "value": "> 100", "unit": "µM"}, {"measurement": "increase in mOEC viability (in words)", "setting": "[3]", "value": "none of the compounds showed a significant increase"}]}]}
